Reference: US7968733B2, “Pyrrolidine analogue for preventing neurogenic pain and method for production thereof” (priority 2006, dated 2011)

Key:
[1] = tested on: acromelic acid-induced allodynia; experiment: Evaluation of allodynia-inhibitory activity (intrathecal co-administration with acromelic acid); format: in vivo, ddY-mouse; settings: for allodynia-inhibitory activity: intrathecal, 5 μl solution with 1×10^−15 gram of acromelic acid plus pyrrolidine derivative, ddY-mouse male, allodynia scored 0 to 2 every 5 minutes for 50 minutes, percent of control, FIGS. 1-3; for dose suppressing allodynia induction with equal potency, relative to the compounds of Comparative Examples 5 and 6: fraction of the doses of Comparative Examples 5 and 6, intrathecal with acromelic acid, ddY-mouse, FIG. 3
Description: In the evaluation, according to the method of Hylden & Wilcox (Hylden, J. L. K. and Wilcox, G. L., Intrathecal morphine in mice: a new technique, Eur. J. Pharmacol, 67 (1980) 313-316.), 5 μl of a solution containing 1×10^−15 gram of acromelic acid and a different dose of pyrrolidine derivative was administrated to ddY-mouse (male, weight 22±2 g) under an unanesthetized condition. One experimental group consisted of 6 mice, and a solution containing 1×10^−15 gram of acromelic acid (5 μl ) was administrated in control groups. After the compound was intrathecally administered, allodynia was assessed once every 5 minutes for 50 minutes by scoring the response in rank order from 0 to 2, and expressed as a percent of the values in control groups, similarly to the method of Yaksh & Harty et al. (Yaksh, T. L. and Harty, G. J., Pharmacology of the allodynia in rats evoked by high dose intrathecal morphine, J. Pharmacol. Exp. Ther., 244 (1988) 501-507.). Allodynic response was ranked as follows: 0, no response; 1, mild squeaking with attempts to move away from the stroking probe; 2, vigorous squeaking evoked by the stroking probe, biting at the probe or strong efforts to escape.

allodynia = settings: intrathecal administration in mice; Non-patent documents 1 and 4; cited from earlier work

| Molecule | allodynia-inhibitory activity [1] | dose suppressing allodynia induction with equal potency, relative to the compounds of Comparative Examples 5 and 6 [1] | allodynia-inducing activity (allodynia) |
| --- | --- | --- | --- |
| O=C(O)C[C@@H]1[C@@H](C(=O)O)NC[C@H]1Oc1ccc(C(=O)O)cc1 [Example 1, (2S,3R,4S)-3-carboxymethyl-4-(4-carboxyphenoxy)-pyrrolidine-2-carboxylic acid] | strong allodynia-inhibitory activity | – | – |
| O=C(O)C[C@@H]1[C@@H](C(=O)O)NC[C@H]1Oc1ccccc1C(=O)O [Example 5, (2S,3R,4S)-3-(carboxymethyl)-4-(2-carboxyphenoxy)-pyrrolidine-2-carboxylate] | strong allodynia-inhibitory activity | – | – |
| Cc1ccc(O[C@@H]2CN[C@H](C(=O)O)[C@H]2CC(=O)O)c(C(=O)O)c1 [Example 8, (2S,3R,4S)-3-carboxymethyl-4-(2-carboxy-4-methyl-phenoxy)pyrrolidine-2-carboxylate] | strong allodynia-inhibitory activity | approximately one-hundredth | – |
| O=C(O)c1ccc(O[C@@H]2CN[C@H](C(=O)O)C2)cc1 [Example 9, (2S,4S)-4-(4-carboxyphenoxy)pyrrolidine-2-carboxylate] | strong allodynia-inhibitory activity | – | – |
| COc1ccc(S[C@H]2CN[C@H](C(=O)O)[C@H]2CC(=O)O)cc1 [Example 13, (2S,3R,4R)-3-(carboxymethyl)-4-(4-methoxyphenylthio)-pyrrolidine-2-carboxylate] | strong allodynia-inhibitory activity | – | – |
| Cc1ccc(S[C@H]2CN[C@H](C(=O)O)[C@H]2CC(=O)O)cc1 [Example 14, (2S,3R,4R)-3-(carboxymethyl)-4-(4-methylphenylthio)-pyrrolidine-2-carboxylate] | strong allodynia-inhibitory activity | approximately one-hundredth | – |
| O=C(O)C[C@H]1[C@@H](Sc2ccccc2)CN[C@@H]1C(=O)O [Example 18, (2S,3R,4R)-3-carboxy-methyl-4-phenylthiopyrrolidine-2-carboxylate] | strong allodynia-inhibitory activity | – | – |
| Cc1ccc(S[C@H]2CN[C@H](C(=O)O)C2)cc1 [Example 19, (2S,4R)-4-(4-methylphenylthio)pyrrolidine-2-carboxylate] | strong allodynia-inhibitory activity | approximately one-hundredth | – |
| [N-]=[N+]=Nc1ccc(O[C@H]2CN[C@H](C(=O)O)[C@H]2CC(=O)O)c(I)c1 [proline analogue (a)] | – | – | the same degree of allodynia-inducing activity as that of acromelic acids |
| acromelic acids | – | – | induce severe allodynia |
